# In patent US7566781B2, “Imidazopyridine compound” (Banyu Pharmaceutical Co., Ltd., priority 2004, dated 2009):
# Biological target: T1, human MCH-1R (Homo sapiens, UniProt Q99705)
# T1 construct: expressed in transfected cells; host or cells: CHO-K1 (American Type Culture Collection), membrane samples
# Test: MCH binding inhibition test
# Conditions: membranes of MCH-1R expressing CHO-K1 cells, 50 pM [125I]MCH, 25° C., 1 hour, pH 7.4; read-out: IC50 (50% inhibition concentration of test compound to the specific [125I]MCH binding)
# Procedure: A human MCH-1R encoding cDNA sequence [FEBS Letters, Vol. 398, 253 (1996); Biochimica et Biophisica Acta, Vol. 1401, 216 (1998)] was cloned to plasmid vector pEF/myc/cyto (Invitrogen Corporation). The obtained expression vector was transfected to a host cell CHO-K1 (American Type Culture Collection) using Lipofectamine Plus Reagent (Life Technology Inc.) to provide MCH-1R expression cells.
# Membrane samples prepared from the MCH-1R expression cells were incubated with each test compound and 50 pM of [^125I]MCH (NEN Co.), in an assay buffer (50 mM Tris buffer comprising 10 mM magnesium chloride, 2 mM ethylenediamine tetraacetate, 0.01% bacitracin and 0.2% bovine serum albumin; pH 7.4) at 25° C. for an hour, followed by filtration through Glass Filter GF/C (Wattman Co.). After washing the glass filter with 50 mM Tris buffer (pH 7.4) comprising 10 mM magnesium chloride, 2 mM ethylenediamine tetraacetate and 0.04% Tween-20, the radioactive activity on the glass filter was measured. The non-specific binding was measured in the presence of 1 μM human MCH and 50% inhibition concentration (IC50 value) of each test compound to the specific [^125I]MCH binding was determined.
# T1 sequence (Q99705 whole entry): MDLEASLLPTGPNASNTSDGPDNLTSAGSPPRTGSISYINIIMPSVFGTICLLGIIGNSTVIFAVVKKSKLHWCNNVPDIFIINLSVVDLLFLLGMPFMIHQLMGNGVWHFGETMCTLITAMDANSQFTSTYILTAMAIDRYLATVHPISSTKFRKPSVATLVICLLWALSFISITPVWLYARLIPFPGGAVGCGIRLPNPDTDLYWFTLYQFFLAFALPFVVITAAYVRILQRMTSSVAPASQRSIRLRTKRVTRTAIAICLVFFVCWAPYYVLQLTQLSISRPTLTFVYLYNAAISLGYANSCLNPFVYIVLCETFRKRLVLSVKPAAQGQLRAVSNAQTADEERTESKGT
row,Structure (SMILES),IC50
1,"CCc1nc2ccc(NC(=O)c3ccc(OCc4ccccn4)c(F)c3)cn2c1C [Example 9, N-(2-ethyl-3-methylimidazo[1,2-a]pyridin-6-yl)-3-fluoro-4-(pyridin-2-ylmethoxy)benzamide]",3.4 nM
2,"CCc1nc2ccc(NC(=O)c3ccc(OCc4ccc(F)cn4)c(F)c3)cn2c1C [Example 11, N-(2-ethyl-3-methylimidazo[1,2-a]pyridin-6-yl)-3-fluoro-4-[(5-fluoropyridin-2-yl)methoxy]benzamide]",2.2 nM
3,Cc1c(CCCN2CCCC2)nc2ccc(NC(=O)c3ccc(OCc4ccccc4)cc3)cn12 [Example 17],0.49 nM
4,Cc1c(C2CC2)nc2ccc(NC(=O)c3ccc(COc4ccccn4)cc3)cn12 [Example 25],8.4 nM
5,"CCc1nc2ccc(NC(=O)c3ccc(/C=C/c4ccccc4)cc3)cn2c1C [Example 28, N-(2-ethyl-3-methylimidazo[1,2-a]pyridin-6-yl)-4-((E)-2-phenylvinyl)benzamide]",1.3 nM
6,Cc1c(C2CCOC2)nc2ccc(NC(=O)c3ccc(/C(F)=C/c4ccccn4)cc3)cn12 (stereo not drawn) [Example 42],4.8 nM
7,"Cc1c(CCCN2CCCC2)nc2ccc(NC(=O)c3ccc(/C=C/c4ccccn4)cc3)cn12 [Example 48, N-[3-methyl-2-(3-pyrrolidin-1-ylpropyl)imidazo[1,2-a]pyridin-6-yl]-4-[(E)-2-pyridin-2-ylvinyl]benzamide]",0.47 nM
8,"Cc1c(C(C)C)nc2ccc(NC(=O)c3ccc(CCc4ccccn4)cc3)cn12 [Example 49, N-(2-isopropyl-3-methylimidazo[1,2-a]pyridin-6-yl)-4-(2-pyridin-2-ylethyl)benzamide]",6.2 nM
9,"CCc1nc2ccc(NC(=O)c3ccc(C(F)Cc4ccccn4)cc3)cn2c1C (stereo not drawn) [Example 58, N-(2-ethyl-3-methylimidazo[1,2-a]pyridin-6-yl)-4-(1-fluoro-2-pyridin-2-ylethyl)benzamide]",3.8 nM
10,"Cc1c(C2CCOC2)nc2ccc(NC(=O)c3ccc(SCc4ccccn4)cc3)cn12 (stereo not drawn) [Example 59, N-[3-methyl-2-(tetrahydrofuran-3-yl)imidazo[1,2-a]pyridin-6-yl]-4-(pyridin-2-ylmethylsulfanyl)benzamide]",3.8 nM
11,"Cc1c(C2CC2)nc2ccc(NC(=O)c3ccc(NC(=O)c4ccccn4)cc3)cn12 [Example 61, Pyridine-2-carboxylic acid[4-(2-cyclopropyl-3-methylimidazo[1,2-a]pyridin-6-ylcarbamoyl)phenyl]amide]",4.7 nM
12,"CCc1nc2ccc(NC(=O)c3ccc(Oc4cc(Cl)ccn4)cc3)cn2c1C [Example 67, 4-(4-Chloropyridin-2-yloxy)-N-(2-ethyl-3-methylimidazo[1,2-a]pyridin-6-yl)benzamide]",4.3 nM
